Assay results from PMC7539012, “Hyperphosphorylated tau aggregation and cytotoxicity modulators screen identified prescription drugs linked to Alzheimer's disease and cognitive functions” (Scientific Reports, 2020).
Structures can show the parent of a compound that is named as a salt.

test system: T1, 1N4R p-tau; assay: p-tau aggregation modulator screen of 1280-compound library (ThS fluorescence net change over 16 h); assay type: biochemical; set-up: key to PTAI>3SD: *: PTAI>3SD; settings: not given
T1 construct: made in house; host or cells: E. coli (PIMAX system)

Row | SMILES | ThS net change
1 | C=CC[N@@+]12CC[C@]34c5ccccc5N5/C=C6\C7N(/C=C(\C53)[C@@H](C[C@@H]41)/C(=C/CO)C2)c1ccccc1[C@@]71CC[N@@+]2(CC=C)C/C(=C\CO)[C@@H]6C[C@@H]12.[Cl-].[Cl-] (stereo partly shown) [Alcuronium chloride] | 460
2 | O=[N+]([O-])O[C@@H]1CO[C@H]2[C@@H]1OC[C@@H]2O [Isosorbide mononitrate] | 477
3 | C[C@]12C/C(=C/O)C(=O)C[C@@H]1CC[C@@H]1[C@@H]2CC[C@@]2(C)[C@H]1CC[C@]2(C)O [Oxymetholone] | 475
4 | CCN(CC)CCOC(=O)C1(c2ccc([N+](=O)[O-])cc2)CCCC1.Cl [Nitrocaramiphen hydrochloride] | 435
5 | CCC1(c2cccc(O)c2)CCCCN(C)C1 (stereo not shown) [Meptazinol hydrochloride] | 462
6 | CC1(C)[C@H](C(=O)O)N2C(=O)C[C@H]2S1(=O)=O [Sulbactam] | 463

same assay, conditions: 1280-compound library screen; ThS fluorescence net change over 16 h

Row | SMILES | ThS net change
7 | Cl.Cl.OCCN1CCN(CC/C=C2/c3ccccc3Sc3ccc(Cl)cc32)CC1 [Zuclopenthixol dihydrochloride] | 398
8 | Cc1ccc(S(=O)(=O)NC(=O)NN2CC3CCCC3C2)cc1 (stereo not shown) [Gliclazide] | 379
9 | Cl.O=C(OCC(O)CO)c1ccccc1Nc1ccnc2cc(Cl)ccc12 (stereo not shown) [Glafenine hydrochloride] | 412
10 | COCCc1ccc(OCC(O)CNC(C)C)cc1.COCCc1ccc(OCC(O)CNC(C)C)cc1.O=C(O)C(O)C(O)C(=O)O (racemic) [Metoprolol-(+,-) (+)-tartrate salt] | 390
11 | N=C(N)NCc1cccc(I)c1.O=S(=O)(O)O [Iobenguane sulfate] | 411
12 | C=CC1=C(C(=O)O)N2C(=O)[C@@H](NC(=O)/C(=N\OCC(=O)O)c3csc(N)n3)[C@H]2SC1 [Cefixime] | 408
13 | Cc1onc(-c2ccccc2Cl)c1C(=O)N[C@@H]1C(=O)N2[C@@H]1SC(C)(C)[C@@H]2C(=O)[O-].[Na+] [Cloxacillin sodium salt] | 380
14 | CC1(C)O[C@@H]2C[C@H]3[C@@H]4C[C@H](F)C5=CC(=O)C=C[C@]5(C)[C@H]4[C@@H](O)C[C@]3(C)[C@]2(C(=O)CO)O1 [Flunisolide] | 378
15 | NC(=O)CN1CCCC1=O [Piracetam] | 406
16 | Nc1ccc(S(=O)(=O)Nc2ncccn2)cc1 [Sulfadiazine] | 379
17 | COc1ccc(NS(=O)(=O)c2ccc(N)cc2)nn1 [Sulfamethoxypyridazine] | 392
18 | CC[N+](C)(C)c1cccc(O)c1 [Edrophonium chloride] | 389
19 | CCCCc1cc2ccccc2c(OCCN(C)C)n1 [Dimethisoquin hydrochloride] | 394
20 | CC(=O)[C@@]1(O)CC[C@H]2[C@@H]3C[C@H](C)C4=CC(=O)C=C[C@]4(C)[C@@]3(F)[C@@H](O)C[C@@]21C [Fluorometholone] | 383
21 | CC1CCc2c(N3CCC(O)CC3)c(F)cc3c(=O)c(C(=O)O)cn1c23 (stereo not shown) [Nadifloxacin] | 399
22 | COc1cc([S+](C)[O-])ccc1-c1nc2ncccc2[nH]1 (stereo not shown) [Sulmazole] | 406
23 | Nc1c2c(nc3ccccc13)CCCC2 [Tacrine hydrochloride] | 405
24 | CC(C)NCC(O)c1ccc(NS(C)(=O)=O)cc1 (stereo not shown) [Sotalol hydrochloride] | 404
25 | NCCc1c[nH]c2ccc(O)cc12 [Serotonin hydrochloride] | 412
26 | NC(=O)c1cccnc1 [Nicotinamide] | 406
27 | COc1ccc(C(=O)NCc2ccc(OCCN(C)C)cc2)cc1OC [Itopride] | 405

same assay, conditions: 1280-compound library screen; […]

Row | SMILES | ThS net change
28 | CN(C)C(=O)Oc1ccc[n+](C)c1.[I-] [Pyridostigmine iodide] | 381
29 | CN1C(=O)CCS(=O)(=O)C1c1ccc(Cl)cc1 (stereo not shown) [Chlormezanone] | 389

same assay, conditions: flag: p-tau aggregation inhibitor, ThS net change more than 3 SD from mean

Row | SMILES | PTAI>3SD
30 | O=C1c2c(O)cccc2Cc2cccc(O)c21 [Anthralin] | *

same assay, conditions: library screen, ThS fluorescence net change over 16 h with p-tau

Row | SMILES | ThS net change
31 | CN(C)CCCN1c2ccccc2Sc2ccc(Cl)cc21 [Chlorpromazine hydrochloride] | 317
32 | CC(NC(C)(C)C)C(=O)c1cccc(Cl)c1 (stereo not shown) [Bupropion hydrochloride] | 278
33 | Clc1ccc(COC(Cn2ccnc2)c2ccc(Cl)cc2Cl)c(Cl)c1 (stereo not shown) [Miconazole] | 316
34 | COc1ccc(CN(CCN(C)C)c2ccccn2)cc1 [Pyrilamine maleate] | 298
35 | OCCOCCN1CCN(C(c2ccccc2)c2ccc(Cl)cc2)CC1 (stereo not shown) [Hydroxyzine dihydrochloride] | 309
36 | O=C1c2c(O)cccc2Cc2cccc(O)c21 [Anthralin] | 85
37 | COc1ccc(CCN2CCC(Nc3nc4ccccc4n3Cc3ccc(F)cc3)CC2)cc1 [Astemizole] | 265

same assay, conditions: p-tau aggregation modulator screen of 1280-compound library; ThS fluorescence net change

Row | SMILES | ThS net change
38 | Oc1c(I)cc(Cl)c2cccnc12 [Clioquinol] | 336
39 | CC(C)NCC(O)COc1cccc2[nH]ccc12 (stereo not shown) [Pindolol] | 331
40 | [H]/N=C(/N)NS(=O)(=O)c1ccc(N)cc1 [Sulfaguanidine] | 364
41 | CC(Cc1cccc(C(F)(F)F)c1)NCCOC(=O)c1ccccc1 (stereo not shown) [Benfluorex] | 375
42 | NS(=O)(=O)c1cc2c(cc1Cl)NC(C(Cl)Cl)NS2(=O)=O (stereo not shown) [Trichlormethiazide] | 375
43 | O=C(O)/C=C\C(=O)O.O=C(O)/C=C\C(=O)O.c1ccc2nc(N3CCNCC3)ccc2c1 [Quipazine dimaleate salt] | 377
44 | C[C@H](O)C(=O)Nc1c(I)c(C(=O)NC(CO)CO)c(I)c(C(=O)NC(CO)CO)c1I [Iopamidol] | 369
45 | Cc1ccc(-c2ncc(Cl)cc2-c2ccc(S(C)(=O)=O)cc2)cn1 [Etoricoxib] | 376
46 | N[C@@H](C(=O)N[C@@H]1C(=O)N2C(C(=O)O)=C(Cl)CC[C@H]12)c1ccccc1 [Loracarbef] | 361
47 | Cc1cc(C(C)(C)C)c(O)c(C)c1CC1=NCCN1 [Oxymetazoline hydrochloride] | 339
48 | C=CCN1CC[C@]23c4c5ccc(O)c4O[C@H]2C(=O)CC[C@@]3(O)[C@H]1C5 [Naloxone hydrochloride] | 349
49 | CN(C)CCCO[C@@H]1[C@H]2OC(C)(C)O[C@H]2O[C@@H]1[C@H](O)CO [Amiprilose hydrochloride] | 367
50 | CCN[C@H]1CN(CCCOC)S(=O)(=O)c2sc(S(N)(=O)=O)cc21 [Brinzolamide] | 348
51 | CCN(CC)CCNC(=O)c1cc(Br)c(N)cc1OC [Bromopride] | 373
52 | CC(C)(Oc1ccc(Cl)cc1)C(=O)O [Clofibric acid] | 349
53 | C1CCC(C(CC2CCCCN2)C2CCCCC2)CC1 (stereo not shown) [Perhexiline maleate] | 342
54 | c1ccc([C@H]2CN3CCSC3=N2)cc1 [Levamisole hydrochloride] | 376
55 | CN(C)CCC=C1c2ccccc2CCc2ccccc21.Cl [Amitryptiline hydrochloride] | 362

same assay, conditions: p-tau aggregation modulator screen of 1280-compound library; […]

Row | SMILES | ThS net change
56 | C[N+](C)(C)CCCCCC[N+](C)(C)C.O.O.[Br-].[Br-] [Hexamethonium dibromide dihydrate] | 342

same assay, conditions: p-tau aggregation modulator screen of the compound library, ThS fluorescence net change

Row | SMILES | ThS net change
57 | CC(=O)OCC(=O)[C@@]12N=C(C)O[C@@H]1C[C@H]1[C@@H]3CCC4=CC(=O)C=C[C@]4(C)[C@H]3[C@@H](O)C[C@@]12C [Deflazacort] | 420
58 | Cn1c(=O)c2c(ncn2CC(=O)O)n(C)c1=O [Acefylline] | 416
59 | C[C@H]1O[C@H](O[C@H]2[C@H](O)[C@@H](O)[C@@H](O[C@H]3[C@H](O)[C@@H](O)C(O)O[C@@H]3CO)O[C@@H]2CO)[C@H](O)[C@@H](O)[C@@H]1N[C@H]1C=C(CO)[C@@H](O)[C@H](O)[C@H]1O (stereo partly shown) [Acarbose] | 414
60 | Cc1cccc(CN2CCN(C(c3ccccc3)c3ccc(Cl)cc3)CC2)c1.Cl.Cl (stereo not shown) [Meclozine dihydrochloride] | 430
61 | COC(=O)Nc1nc2ccc([S+]([O-])c3ccccc3)cc2[nH]1 (stereo not shown) [Oxfendazol] | 433
62 | COc1ccccc1OCC(O)CN1CCN(CC(=O)Nc2c(C)cccc2C)CC1 (stereo not shown) [Ranolazine] | 414
63 | O=C(CCNNC(=O)c1ccncc1)NCc1ccccc1 [Nialamide] | 470
64 | CC(C)(CO)[C@@H](O)C(=O)NCCCO [Panthenol (D)] | 429
65 | CCCCC[C@H](O)/C=C/[C@H]1[C@H](O)CC(=O)[C@@H]1CCCCCCC(=O)O [Alprostadil] | 445
66 | Cc1onc(-c2c(F)cccc2Cl)c1C(=O)N[C@@H]1C(=O)N2[C@@H]1SC(C)(C)[C@@H]2C(=O)O [Flucloxacillin sodium] | 443
67 | CCOC(=O)OC(C)OC1=C(C(=O)Nc2ccccn2)N(C)S(=O)(=O)c2ccccc21 (stereo not shown) [Ampiroxicam] | 493
68 | O=C(CCCN1CCN(c2ccccn2)CC1)c1ccc(F)cc1 [Azaperone] | 419
69 | CNCC(O)c1ccc(O)c(O)c1 (stereo not shown) [Racepinephrine HCl] | 453
70 | O=C(OCCOCCO)c1ccccc1Nc1cccc(C(F)(F)F)c1 [Etofenamate] | 425
71 | Nc1nc(F)nc2c1ncn2[C@@H]1O[C@H](CO)[C@@H](O)[C@@H]1O [Fludarabine] | 428
72 | NC12CC3CC(CC(C3)C1)C2.NC12CC3CC(CC(C3)C1)C2.O=C(O)/C=C/C(=O)O [Adamantamine fumarate] | 423
73 | CCOC(=O)Nc1ccc2c(c1)N(C(=O)CCN1CCOCC1)c1ccccc1S2 [Moricizine hydrochloride] | 473
74 | COc1ncnc(NS(=O)(=O)c2ccc(N)cc2)c1OC [Sulfadoxine] | 513
75 | CN[C@@H]1[C@@H](O[C@H]2O[C@H](CO)[C@@H](N)[C@H](O)[C@H]2O)OC2C[C@@H](N)[C@@H](O[C@H]3[C@H](O)[C@@H](O)[C@H](N)C[C@@H]3N)OC2[C@@H]1O (stereo partly shown) [Apramycin] | 416
76 | C[C@@H](c1ncncc1F)[C@](O)(Cn1cncn1)c1ccc(F)cc1F [Voriconazole] | 435
